{
  "source": "patent US20060223876A1",
  "about": "“Indoloquinone Tumor Radiation Sensitization” (priority 2005, published 2006)",
  "key": {"[1]": {"test_system": "U-87 human glioblastoma cells", "method": "U-87 human glioblastoma cells (American Type Culture Collection) were maintained in alpha MEM medium (Sigma) with 10% fetal bovine serum (Atlanta Biologicals). A U-87 cell suspension was injected subcutaneously into the right hind limb (5×10^5 cells in 100 μl PBS) of athymic NCR NUM mice (Taconic Farms) and allowed to grow to a hypoxic volume of ˜550 mm^3 before treatment. Tumors were treated with EO9 and a fractionated radiation therapy schedule to test the hypothesis that EO9 would sensitize tumor cells to radiation therapy. EO9 or vehicle was administered 30 minutes after each radiation therapy fraction on day 1, 2, and 3. The study used 4 treatment groups: vehicle (DMSO), radiation therapy alone (3 days×7.5 Gy), EO9 (3 days×2 mg/kg), and EO9 +radiation therapy (3 days×7.5 Gy×2 mg/kg). EO9 was administered locally by intra-tumoral injection to achieve optimal delivery.\nIrradiations were performed on anesthetized mice using an X-ray machine (Pantak) operating at 250 kV, 10 mA, with a 2-mm aluminum filtration. The effective photon energy was 90 keV. Mice were anesthetized with a combination of Ketamine and Acepromazine at a concentration of 75 mg/kg and 0.30 mg/kg respectively. Each mouse was confined in a lead casing with its tumor-bearing leg extended through an opening on the side to allow the tumor to be irradiated locally.\nMixed-effects regression was used to model the base-10 logarithm of tumor volume as a function of time and treatment (tumor growth analyses). The log-transformed outcome was used because tumors of this size grow approximately exponentially, and therefore the logarithm of the tumor volume is approximately linear over time. This approach appropriately handles unbalanced data, such as a different number of measurements for different animals, and takes into account the correlation of each animal's measurements over time. These analyses were carried out with SAS 8.2 (SAS Institute Inc., Cary, N.C., 1999-2001)."}, "[2]": {"test_system": "U-87 human glioblastoma cells", "assay": "Long term study: EO9 and radiation therapy two non-consecutive days a week for 3 weeks, U-87 tumor xenograft growth", "type": "in vivo, athymic NCR NUM mice", "settings": "for % Δ: average rate of increase of tumor volume / T2x: average doubling time of tumor volume: 2 days a week for 3 weeks", "method": "The effective photon energy was 90 keV.\nA protocol was investigated where EO9 and radiation therapy were administered over a longer period of time. In this study, EO9 or radiation therapy was delivered alone or in combination on two non-consecutive days a week for 3 weeks. Six groups received vehicle alone (DMSO), vehicle 30 minutes before radiation therapy (2 days×7.5 Gy), vehicle 30 minutes after radiation therapy (2 days×7.5 Gy), E09 only (2 days×3 mg/kg), EO9 […], and EO9 30 minutes after radiation therapy."}, "[3]": {"settings": "EO9 + radiation therapy (3 days x 7.5 Gy x 2 mg/kg), EO9 30 minutes after each fraction"}, "[4]": {"settings": "EO9 3 mg/kg 30 minutes after radiation therapy (7.5 Gy)"}, "[5]": {"settings": "EO9 3 mg/kg before radiation therapy (7.5 Gy)"}, "[6]": {"settings": "EO9 only, 3 mg/kg intra-tumoral"}},
  "note": "Where two headings read alike, the source gives them in different places.",
  "data": [
    {"smiles": "Cn1c(/C=C/CO)c(CO)c2c1C(=O)C=C(N1CC1)C2=O", "note": "[EO9, 3-hydroxymethyl-5-aziridinyl-1-methyl-2-(1 H-indole-4,7-dione)-prop-β-en-α-ol]", "values": [
      {"measurement": "nature of the combination effect of EO9 and radiation therapy", "setting": "[1]; EO9 + radiation therapy", "value": "additive"},
      {"measurement": "Estimated Time (Days) for tumors to reach 2000 mm^3", "setting": "[1]; [3]", "value": 20.8, "unit": "days"},
      {"measurement": "T2x: average doubling time of tumor volume", "setting": "[1]; [3]", "value": 11.7, "unit": "days"},
      {"measurement": "% Δ (95% CI): average rate of increase of tumor volume", "setting": "[1]; EO9 + radiation therapy (3 days x 7.5 Gy x 2 mg/kg), EO9 intra-tumoral 30 minutes after each fraction", "value": "6 (4, 8) % daily increase"},
      {"measurement": "increase of tumor doubling time vs. control", "setting": "[1]; EO9 alone, 3 days x 2 mg/kg", "value": 1.4, "unit": "days"},
      {"measurement": "Estimated Time (Days) for tumors to reach 2000 mm^3", "setting": "[1]; EO9 alone, 3 days x 2 mg/kg intra-tumoral", "value": 8.6, "unit": "days"},
      {"measurement": "% Δ (95% CI): average rate of increase of tumor volume", "setting": "[1]; EO9 alone, 3 days x 2 mg/kg intra-tumoral, tumors ~550 mm^3", "value": "16 (14, 19) % daily increase"},
      {"measurement": "rate of tumor growth compared with the other groups", "setting": "[1]; EO9 and radiation therapy", "value": "slowest rate of tumor growth"},
      {"measurement": "increase of mean tumor doubling time vs. control", "setting": "[1]; combination of EO9 and radiation therapy", "value": 8.5, "unit": "days"},
      {"measurement": "% Δ: average rate of increase of tumor volume", "setting": "[2]; [4]", "value": 8, "unit": "% daily increase"},
      {"measurement": "T2x: average doubling time of tumor volume", "setting": "[2]; [4]", "value": 9.1, "unit": "days"},
      {"measurement": "% Δ: average rate of increase of tumor volume", "setting": "[2]; [5]", "value": 4, "unit": "% daily increase"},
      {"measurement": "T2x: average doubling time of tumor volume", "setting": "[2]; [5]", "value": 17.3, "unit": "days"},
      {"measurement": "effectiveness of dosing schedule", "setting": "[2]; EO9 administered before radiation therapy", "value": "most effective dosing schedule"},
      {"measurement": "% Δ: average rate of increase of tumor volume", "setting": "[2]; [6]", "value": 12, "unit": "% daily increase"},
      {"measurement": "T2x: average doubling time of tumor volume", "setting": "[2]; [6]", "value": 6.1, "unit": "days"},
      {"measurement": "rate of tumor volume growth compared with the other groups", "setting": "[2]; groups receiving EO9 before or after radiation therapy combined into a single group (FIG. 8)", "value": "slowest rate of tumor volume growth"}
    ]}
  ]
}
